Our source for the EC50 values is ChEMBL document CHEMBL5726216, “Derivatives and methods of treating hepatitis B infections” (2019).

SMILES strings stand for the structures.

The nature of this assay: BDNA-assay: HBV replication inhibition by the compounds of this invention could be determined in cells infected or transfected with HBV, or cells with stably integrated HBV, such as HepG2.2.15 cells (Sells et al. 1987). In this example, HepG2.2.15 cells were maintained in cell culture medium containing 10% fetal bovine serum (FBS), Geneticin, L-glutamine, penicillin and streptomycin. HepG2.2.15 cells could be seeded in 96-well plates at a density of 40,000 cells/well and be treated with serially diluted compounds at a final DMSO concentration of 0.5% either alone or in combination by adding drugs in a checker box format. Cells were incubated with compounds for three days, after which medium was removed and fresh medium containing compounds was added to cells and incubated for another three days. At day 6, supernatant was removed and treated with DNase at 37° C. for 60 minutes, followed by enzyme inactivation at 75° C. for 15 minutes. Encapsidated HBV DNA was released from the virions and covalently linked HBV polymerase by incubating in lysis buffer (Affymetrix QS0010) containing […] proteinase K at 50° C. for 40 minutes. HBV DNA was denatured by addition of 0.2 M NaOH and detected using a branched DNA (BDNA) QuantiGene assay kit according to manufacturer recommendation (Affymetrix). HBV DNA levels could also be quantified using qPCR, based on amplification of encapsidated HBV DNA extraction with QuickExtraction Solution (Epicentre Biotechnologies) and amplification of HBV DNA using HBV specific PCR probes that can hybridize to HBV DNA and a fluorescently labeled probe for quantitation. In addition, cell viability of HepG2.2.15 cells incubated with test compounds alone or in combination was determined by using CellTitre-Glo reagent according to the manufacturer protocol (Promega). The mean background signal from wells containing only culture medium was subtracted from all other samples, and percent inhibition at each compound concentration was calculated by normalizing to signals from HepG2.2.15 cells treated with 0.5% DMSO using equation E1.
Consider `CN(C)N(C)C(=O)c1n[nH]c2c1CN(C(=O)Nc1cccc(Cl)c1)CC2`, for which the concentration giving a half-maximal response (EC50) (commonly the concentration needed to bring the measured effect to its halfway point) was below 100 nM.
Turning to `CN(OC1CCOC1)C(=O)c1n[nH]c2c1CN(C(=O)Nc1cccc(Cl)c1)CC2` (stereo not given), the 50% effective concentration (EC50) is below 500 nM.
As for `CCC(=O)c1n[nH]c2c1CN(C(=O)Nc1cccc(Cl)c1)CC2`, the EC50 is below 500 nM.
For `CN(O)C(=O)c1n[nH]c2c1CN(C(=O)Nc1cccc(Cl)c1)CC2` the value was below 1000 nM; for `CCCC(=O)c1n[nH]c2c1CN(C(=O)Nc1cccc(Cl)c1)CC2`, below 100 nM; for `CON(C(=O)c1n[nH]c2c1CN(C(=O)Nc1cccc(Cl)c1)CC2)C(C)C`, below 500 nM.
With `CN(OCCO)C(=O)c1n[nH]c2c1CN(C(=O)Nc1cccc(Cl)c1)CC2`, the EC50 was below 500 nM.
In the case of `CCN(OC)C(=O)c1n[nH]c2c1CN(C(=O)Nc1cccc(Cl)c1)CC2`, the half-maximal effective concentration (EC50) was below 100 nM.
With `CC(C)ON(C)C(=O)c1n[nH]c2c1CN(C(=O)Nc1cccc(Cl)c1)CC2`, the half-maximal effective concentration (EC50) was below 100 nM.
For `O=C(Nc1cccc(Cl)c1)N1CCc2[nH]nc(C(=O)N3CC(F)CO3)c2C1` (stereo not given), the concentration giving a half-maximal response (EC50) was below 100 nM.
On to `CON(C)C(=O)c1n[nH]c2c1CN(C(=O)Nc1cccc(Cl)c1)CC2`, for which the concentration giving a half-maximal response (EC50) was below 100 nM.
`CN(OC1CCC1)C(=O)c1n[nH]c2c1CN(C(=O)Nc1cccc(Cl)c1)CC2`: the half-maximal effective concentration (EC50) is below 100 nM.
For `CC(C)CON(C)C(=O)c1n[nH]c2c1CN(C(=O)Nc1cccc(Cl)c1)CC2` the value was below 500 nM.
Consider `CCON(C)C(=O)c1n[nH]c2c1CN(C(=O)Nc1cccc(Cl)c1)CC2`, for which the 50% effective concentration (EC50) was below 100 nM.
As for `CCCON(C)C(=O)c1n[nH]c2c1CN(C(=O)Nc1cccc(Cl)c1)CC2`, the half-maximal effective concentration (EC50) is below 500 nM.
For `O=C(Nc1cccc(Cl)c1)N1CCc2[nH]nc(C(=O)N3CCCO3)c2C1` the value was below 500 nM; for `CN1CC(ON(C)C(=O)c2n[nH]c3c2CN(C(=O)Nc2cccc(Cl)c2)CC3)C1`, below 500 nM.
Consider `O=C(Nc1cccc(Cl)c1)N1CCc2[nH]nc(C(=O)N3CC(O)CO3)c2C1` (stereo not given), for which the EC50 is below 1000 nM.
As to `CN(OCC1CC1)C(=O)c1n[nH]c2c1CN(C(=O)Nc1cccc(Cl)c1)CC2`, the 50% effective concentration (EC50) is below 500 nM.
`COCCON(C)C(=O)c1n[nH]c2c1CN(C(=O)Nc1cccc(Cl)c1)CC2`: the 50% effective concentration (EC50) is below 500 nM.
